According to patent publication US11339151B2, “Aliphatic acid amide derivative” (Sumitomo Dainippon Pharma Co., Ltd., priority 2019, dated 2022):

How the values were obtained:
human 5-HT7 receptor [1] = molecular target: T1, human 5-HT7 receptor (Homo sapiens (Human), UniProt P34969); assay: Test 1: binding activity for human 5-HT7 receptor ([3H]SB-269970, CHO cell membrane fraction); conditions: [3H]SB-269970, room temperature 60 minutes
Procedure: (§1) Ki value was evaluated from dissociation constant which was calculated from saturated binding tests, and a substrate concentration, and it was used as an index for binding affinity.

human D2 receptor = human D2 receptor (Homo sapiens (Human), UniProt P14416); assay: Test 1: binding activity for human D2 receptor ([3H]Spiperone, CHO cell membrane fraction); conditions: [3H]Spiperone, room temperature 60 minutes
Procedure: as §1

human 5-HT7 receptor [2] = molecular target: T1, human 5-HT7 receptor; assay: Test 2: antagonist activity for human 5-HT7 receptor (aequorin luminescence, CHO-K1 cells); assay type: cell-based; conditions: Gα16
Procedure: Test 2: Evaluation of Antagonist Activity for Human 5-HT2A Receptor and Human 5-HT7 Receptor
Aequorin, Gα 16 protein, and each receptor were transiently expressed in CHO-K1 cells (Chinese hamster ovary). The cells were cultivated in a CO2 incubator at 37° C. overnight, seeded into a 384-well plate, and stood at room temperature for 2 hours. Each compound dissolved in DMSO was added thereto, and changes in luminescence were measured by FDSS/μCELL drug discovery screening support system (Hamamatsu Photonics K.K.). As for antagonist activity, inhibitory activity of each compound was calculated by setting the luminescence level of wells to which 10 μmol/L endogenous ligand was added as 100%.

[3] = Test 3-1: metabolic stability test in human hepatic microsome; assay type: in vitro ADME; conditions: microsome 0.1 mg/mL, test compound 0.1 μmol/L, 37° C., 30 minutes
Procedure: Test 3-1: Metabolic Stability Test in Human Hepatic Microsome
The metabolic stability of the present compound in human hepatic microsome was evaluated as mentioned below. Human hepatic microsome was obtained from Xenontech. Human hepatic microsome, NADPH, and each test compound were mixed in 25 mmol/L phosphate buffer solution (pH 7.4) to reach the following concentrations as shown below, and the mixture was incubated at 37° C. for 30 minutes. • Human hepatic microsome: 0.1 mg/mL • NADPH: 3.2 mmol/L • Test compound: 0.1 μmol/L
The residual ratio of test compound in each sample after 30 minutes was measured by LC-MS, and the metabolic stability in human hepatic microsome was calculated from the following formula. Metabolic stability in human hepatic microsome (mL/min/mg protein)=−LN (residual ratio)/30/0.1

hERG channel = hERG channel (Homo sapiens (Human), UniProt Q12809); assay: Test 5: inhibitory activity for hERG channel (whole cell patch clamp, hERG-CHO cells); assay type: cell-based; conditions: hERG-CHO cells, auto patch clamp
Procedure: Test 5: Evaluation of Inhibitory Activity for hERG Channel
Inhibitory activity of the present compound for hERG channel was measured by whole cell patch clamp method with an auto patch clamp system using CHO cells in which hERG channel involved in human rapidly activating delayed rectifier potassium current (IKr) was forcibly expressed.
hERG-CHO cells purchased from ChanTest Cop. were cultured in a CO2 incubator at 37° C., and dissociated from a flask with trypsin shortly before the measurement of hERG current to prepare a cell suspension.
The cell suspension, the extracellular fluid, the intracellular fluid, and the measurement plate were set in an auto patch clamp system, and hERG current was measured by whole cell patch clamp method. […] Each pulse interval was 15 seconds. The data analysis was carried out with Qube Assay Software (Sophion Sophion). The test was carried out by applying incrementally 4 concentrations of each test compound, and the average of the maximum peak tail currents which were obtained from the last 3 stimulations in each concentration was determined as the evaluated data.

human D2 receptor, sequence (P14416 whole entry): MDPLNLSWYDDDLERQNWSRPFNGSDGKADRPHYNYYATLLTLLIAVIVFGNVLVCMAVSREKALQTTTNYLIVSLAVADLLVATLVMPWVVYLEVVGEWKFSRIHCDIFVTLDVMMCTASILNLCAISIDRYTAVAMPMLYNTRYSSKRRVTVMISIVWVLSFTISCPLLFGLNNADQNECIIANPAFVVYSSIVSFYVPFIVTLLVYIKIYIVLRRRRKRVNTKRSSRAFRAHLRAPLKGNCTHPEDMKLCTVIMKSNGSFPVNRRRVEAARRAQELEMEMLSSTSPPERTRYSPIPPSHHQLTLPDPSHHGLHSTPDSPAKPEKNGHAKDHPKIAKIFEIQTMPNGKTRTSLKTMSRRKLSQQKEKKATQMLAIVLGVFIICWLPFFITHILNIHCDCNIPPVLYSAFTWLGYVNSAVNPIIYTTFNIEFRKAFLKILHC
T1 sequence (P34969 whole entry): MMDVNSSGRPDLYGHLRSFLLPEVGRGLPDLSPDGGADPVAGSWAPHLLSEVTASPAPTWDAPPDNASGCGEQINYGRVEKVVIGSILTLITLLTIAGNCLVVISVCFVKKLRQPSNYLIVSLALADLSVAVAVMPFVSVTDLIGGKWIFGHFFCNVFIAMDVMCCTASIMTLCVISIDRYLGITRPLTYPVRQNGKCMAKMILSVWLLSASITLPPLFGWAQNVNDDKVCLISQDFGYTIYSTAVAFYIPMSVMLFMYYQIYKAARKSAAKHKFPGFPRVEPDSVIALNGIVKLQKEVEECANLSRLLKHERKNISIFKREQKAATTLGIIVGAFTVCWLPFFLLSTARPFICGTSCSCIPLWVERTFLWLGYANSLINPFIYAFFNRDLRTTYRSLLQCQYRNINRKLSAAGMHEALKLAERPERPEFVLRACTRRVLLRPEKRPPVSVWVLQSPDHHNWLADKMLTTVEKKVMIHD
hERG channel, sequence (Q12809 whole entry): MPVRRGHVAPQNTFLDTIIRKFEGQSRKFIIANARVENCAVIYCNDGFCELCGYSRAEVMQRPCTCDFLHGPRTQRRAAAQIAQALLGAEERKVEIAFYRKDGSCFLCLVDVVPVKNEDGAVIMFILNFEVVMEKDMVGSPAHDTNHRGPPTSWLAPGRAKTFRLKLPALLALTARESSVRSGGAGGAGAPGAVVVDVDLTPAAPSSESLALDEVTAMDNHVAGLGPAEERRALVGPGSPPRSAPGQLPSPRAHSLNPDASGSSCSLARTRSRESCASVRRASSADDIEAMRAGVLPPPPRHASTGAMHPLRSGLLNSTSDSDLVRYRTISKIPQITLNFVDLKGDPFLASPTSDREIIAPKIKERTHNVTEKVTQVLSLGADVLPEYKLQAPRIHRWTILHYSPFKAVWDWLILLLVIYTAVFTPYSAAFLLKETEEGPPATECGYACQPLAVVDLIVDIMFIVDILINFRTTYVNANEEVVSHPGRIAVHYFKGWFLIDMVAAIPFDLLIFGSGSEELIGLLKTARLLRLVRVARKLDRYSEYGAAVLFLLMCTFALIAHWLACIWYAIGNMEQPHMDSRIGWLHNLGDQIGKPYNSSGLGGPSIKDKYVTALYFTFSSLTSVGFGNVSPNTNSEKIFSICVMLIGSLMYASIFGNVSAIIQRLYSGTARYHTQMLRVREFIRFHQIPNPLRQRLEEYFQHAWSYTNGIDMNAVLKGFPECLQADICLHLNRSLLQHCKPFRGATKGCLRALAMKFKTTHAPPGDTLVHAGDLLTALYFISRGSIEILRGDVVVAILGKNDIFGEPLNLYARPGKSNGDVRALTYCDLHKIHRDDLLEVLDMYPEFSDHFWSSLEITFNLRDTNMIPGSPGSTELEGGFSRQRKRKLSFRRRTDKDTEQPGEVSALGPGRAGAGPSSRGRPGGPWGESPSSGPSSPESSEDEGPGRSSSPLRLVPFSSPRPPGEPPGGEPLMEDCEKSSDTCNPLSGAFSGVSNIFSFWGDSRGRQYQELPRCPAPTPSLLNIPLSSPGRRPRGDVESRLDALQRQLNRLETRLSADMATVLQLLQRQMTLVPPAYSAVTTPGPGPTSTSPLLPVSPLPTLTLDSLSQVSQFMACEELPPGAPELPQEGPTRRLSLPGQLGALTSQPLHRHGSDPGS

Ki (human 5-HT7 receptor [1])	Ki (human D2 receptor)	IC50 (human 5-HT7 receptor [2])	Metabolic stability in human hepatic microsome [3]	SMILES	IC50 (hERG channel)
7.9 nM	> 1000 nM	68 nM	<0.05 mL/min/mg protein	CCN(CCN1CCC(c2c[nH]c3ccccc23)CC1)C(=O)[C@H](C)O [Example 23, (2S)—N-Ethyl-2-hydroxy-N-{2-[4-(1H-indol-3-yl)piperidin-1-yl]ethyl}propanamide]	> 10000 nM
7.7 nM	1390 nM	26 nM	<0.05 mL/min/mg protein	CCN(CCN1CCC(c2noc3ccccc23)CC1)C(=O)C(C)O (stereo not shown) [Example 25]	> 10000 nM
22.1 nM	> 10000 nM	71 nM	<0.05 mL/min/mg protein	CCN(CCN1CCN(c2noc3ccccc23)CC1)C(=O)C(C)O (stereo not shown) [Example 26]	> 10000 nM
11.1 nM	2160 nM	73 nM	<0.05 mL/min/mg protein	CCN(CCN1CCN(c2noc3cc(F)ccc23)CC1)C(=O)C(C)O (stereo not shown) [Example 27]	> 10000 nM
2.6 nM	146 nM	99 nM	<0.05 mL/min/mg protein	CC[C@@H](O)C(=O)N(CC)CCN1CCC(c2noc3cc(F)ccc23)CC1 [Example 29]	900 nM
6.6 nM	153 nM	39 nM	<0.05 mL/min/mg protein	CC(O)C(=O)N(CCN1CCC(c2noc3cc(F)ccc23)CC1)CC1CC1 (stereo not shown) [Example 30]	1200 nM
1.2 nM	89 nM	64 nM	<0.05 mL/min/mg protein	CC(O)C(=O)N(CCN1CCC(c2noc3cc(F)ccc23)CC1)C(C)C (stereo not shown) [Example 31]	3100 nM
1.6 nM	55 nM	59 nM	0.268 mL/min/mg protein	CCN(CCN1CCC(c2noc3cc(F)ccc23)CC1)C(=O)C1CCCCC1O (stereo not shown) [Example 33]	2200 nM
4.6 nM	247 nM	78 nM	<0.05 mL/min/mg protein	CCN(CCN1CCC(c2noc3cc(F)ccc23)CC1)C(=O)C(O)C(F)(F)F (stereo not shown) [Example 34]	7300 nM
3.8 nM	< 100 nM	81 nM	<0.05 mL/min/mg protein	CC(C)N(CCN1CCC(c2noc3cc(F)ccc23)CC1)C(=O)CCO [Example 35]	4300 nM
1.1 nM	< 100 nM	66 nM	<0.05 mL/min/mg protein	CCN(CCN1CCC(c2noc3cc(F)ccc23)CC1)C(=O)C(C)CO (stereo not shown) [Example 37]	> 10000 nM
9.6 nM	352 nM	59 nM	<0.05 mL/min/mg protein	CCN(CCCN1CCC(c2noc3cc(F)ccc23)CC1)C(=O)[C@H](C)O [Example 38]	> 10000 nM
1.8 nM	< 100 nM	7 nM	<0.05 mL/min/mg protein	CC(C)N(CCN1CCC(c2noc3cc(F)ccc23)CC1)C(=O)[C@H](C)O [Example 41]	6700 nM
2.5 nM	74 nM	9 nM	<0.05 mL/min/mg protein	CC(C)N(CCN1CCC(c2noc3cc(F)ccc23)CC1)C(=O)[C@@H](C)O [Example 42]	6400 nM
22.6 nM	> 300 nM	49 nM	<0.05 mL/min/mg protein	CCN(CCN1CCC(c2noc3ccc(F)cc23)CC1)C(=O)[C@H](C)O [Example 45]	> 10000 nM
8.9 nM	457 nM	43 nM	<0.05 mL/min/mg protein	CCN(CCN1CCC(c2c[nH]c3ccccc23)CC1)C(=O)CCO [Example 47]	5400 nM
2.7 nM	80 nM	18 nM	<0.05 mL/min/mg protein	CCN(CCN1CCC(c2c[nH]c3cc(F)ccc23)CC1)C(=O)CCO [Example 48]	2900 nM
22.6 nM	> 1000 nM	16 nM	<0.05 mL/min/mg protein	CCN(CCN1CCC(c2c[nH]c3ccccc23)CC1)C(=O)[C@@H](C)O [Example 49]	> 10000 nM
1.4 nM	< 100 nM	44 nM	<0.05 mL/min/mg protein	CCN(CCCN1CCC(c2noc3cc(F)ccc23)CC1)S(=O)(=O)CCO [Example 53]	7200 nM
0.4 nM	< 100 nM	6 nM	<0.05 mL/min/mg protein	CCN(CCCN1CCC(c2noc3cc(F)ccc23)CC1)S(=O)(=O)C(C)CO (stereo not shown) [Example 56]	2100 nM
19.4 nM	> 1000 nM	103 nM	<0.05 mL/min/mg protein	CCN(CCN1CCC(c2noc3cc(F)c(C)cc23)CC1)S(=O)(=O)CCO [Example 58]	> 10000 nM
13.6 nM	> 1000 nM	62 nM	0.079 mL/min/mg protein	CCN(CCN1CCC(c2noc3ccc(C)cc23)CC1)S(=O)(=O)CCO [Example 59]	> 10000 nM
12.7 nM	514 nM	15 nM	<0.05 mL/min/mg protein	CCN(CCN1CCC(c2noc3ccccc23)CC1)S(=O)(=O)CCO [Example 61]	> 10000 nM
2.8 nM	104 nM	28 nM	<0.05 mL/min/mg protein	CCN(CCN1CCC(c2c[nH]c3cc(F)ccc23)CC1)S(=O)(=O)CCO [Example 62]	5400 nM
6.9 nM	532 nM	46 nM	<0.05 mL/min/mg protein	CCN(CCN1CCC(n2ncc3cc(F)ccc32)CC1)S(=O)(=O)CCO [Example 63]	14500 nM
2.4 nM	348 nM	101 nM	0.097 mL/min/mg protein	CCN(CCN1CCC(n2ncc3cc(F)ccc32)CC1)S(=O)(=O)C(C)CO (stereo not shown) [Example 64]	> 10000 nM
5.4 nM	212 nM	70 nM	<0.05 mL/min/mg protein	CCN(CCN1CCC(c2noc3cc(F)ccc23)CC1)C(=O)C1CNCC1O (stereo not shown) [Example 66]	> 10000 nM
0.9 nM	< 100 nM	72 nM	<0.05 mL/min/mg protein	CCN(CCN1CCC(c2noc3cc(F)ccc23)CC1)C(=O)C1CNCCC1O (stereo not shown) [Example 67]	> 10000 nM
1.5 nM	< 100 nM	85 nM	<0.05 mL/min/mg protein	CCN(CCN1CCC(c2noc3cc(F)ccc23)CC1)C(=O)C1(O)CCCNC1 (stereo not shown) [Example 69]	> 10000 nM
